Assay results from patent US20240270762A1, “PENICILLIN-BINDING PROTEIN INHIBITORS” (priority 2021, published 2024).
Converted amounts (≈) assume the structure as drawn.

Assays:
P. aeruginosa CDC-0054 = assay: microbe, parasite or virus in culture; assay type: cell-based; details: Pseudomonas aeruginosa, CDC0054, read-out: Minimum inhibitory concentration, P. aeruginosa CDC-0054
N. gonorrhoeae FA1090 = assay: Liquid broth MIC in Fastidious broth; details: Neisseria gonorrhoeae, FA1090, read-out: Minimum Inhibitory Concentration, FA 1090
P. aeruginosa ATCC 27853 = assay: microbe, parasite or virus in culture; assay type: cell-based; details: Pseudomonas aeruginosa, ATCC27853, read-out: Minimum inhibitory concentration, P. aeruginosa ATCC 27853
N. gonorrhoeae WHO Z = assay: Liquid broth MIC in Fastidious broth; details: Neisseria gonorrhoeae, read-out: Minimum Inhibitory Concentration, WHO Z
A. baumannii PBP1a = target: T1, A. baumannii PBP1a (Acinetobacter baumannii, UniProt A0ABX6CK30); assay: Bocillin-FL competition binding via gel filtration, A. baumannii PBP1a; details: competition binding assay using Bocillin-FL via gel filtration; read-out: A. baumannii PBP1a Potency
T1 sequence (A0ABX6CK30 1-851): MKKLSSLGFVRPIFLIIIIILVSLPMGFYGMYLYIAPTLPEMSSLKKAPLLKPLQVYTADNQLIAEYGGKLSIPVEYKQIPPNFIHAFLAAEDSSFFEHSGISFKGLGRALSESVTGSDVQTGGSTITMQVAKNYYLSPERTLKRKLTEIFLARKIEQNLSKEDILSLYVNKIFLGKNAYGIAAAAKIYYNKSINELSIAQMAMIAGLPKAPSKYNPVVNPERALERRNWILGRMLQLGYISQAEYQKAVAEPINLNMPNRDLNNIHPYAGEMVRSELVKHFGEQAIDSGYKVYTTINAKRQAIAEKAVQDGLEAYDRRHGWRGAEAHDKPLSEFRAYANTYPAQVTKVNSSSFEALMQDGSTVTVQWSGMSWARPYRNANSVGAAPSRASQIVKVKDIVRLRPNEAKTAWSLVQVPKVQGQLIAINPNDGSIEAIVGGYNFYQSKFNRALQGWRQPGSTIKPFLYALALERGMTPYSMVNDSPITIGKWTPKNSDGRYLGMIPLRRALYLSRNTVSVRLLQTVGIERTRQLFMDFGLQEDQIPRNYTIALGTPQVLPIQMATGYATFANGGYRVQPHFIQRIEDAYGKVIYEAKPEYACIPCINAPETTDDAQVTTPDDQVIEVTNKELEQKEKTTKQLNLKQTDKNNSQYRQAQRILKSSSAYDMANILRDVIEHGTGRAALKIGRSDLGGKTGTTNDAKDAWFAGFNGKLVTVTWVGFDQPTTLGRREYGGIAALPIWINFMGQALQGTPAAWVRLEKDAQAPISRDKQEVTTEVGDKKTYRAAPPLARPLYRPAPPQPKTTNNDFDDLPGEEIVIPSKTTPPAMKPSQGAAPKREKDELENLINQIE
In short: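 Enzyme pre-incubated with increasing inhibitor concentrations, then Bocillin-FL added for 15 min further incubation. Bocillin-FL-bound PBP separated by gel filtration and fluorescence read. EC50 from fitting fraction PBP bound vs inhibitor concentration to a Hill-type equation (ymin, ymax, n).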

[1] = target: T2, PBP3 from Escherichia coli (K-12) (Escherichia coli, UniProt P0AD68); assay: Bocillin-FL fluorescence polarization competition binding, E. coli PBP3
T2 construct: made in house
In short: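 Purified PBPs pre-incubated with inhibitor (E. coli PBP3 1.5 μM, 30 min; P. aeruginosa PBP3 0.75 μM, A. baumannii PBP1a 1 μM and PBP3 0.2 μM, 15 min), then Bocillin-FL 0.1 μM (0.05 μM for PBP1a) added; FP read up to 60 min. EC50 = concentration halving bound Bocillin-FL.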

T2 sequence (P0AD68 1-577): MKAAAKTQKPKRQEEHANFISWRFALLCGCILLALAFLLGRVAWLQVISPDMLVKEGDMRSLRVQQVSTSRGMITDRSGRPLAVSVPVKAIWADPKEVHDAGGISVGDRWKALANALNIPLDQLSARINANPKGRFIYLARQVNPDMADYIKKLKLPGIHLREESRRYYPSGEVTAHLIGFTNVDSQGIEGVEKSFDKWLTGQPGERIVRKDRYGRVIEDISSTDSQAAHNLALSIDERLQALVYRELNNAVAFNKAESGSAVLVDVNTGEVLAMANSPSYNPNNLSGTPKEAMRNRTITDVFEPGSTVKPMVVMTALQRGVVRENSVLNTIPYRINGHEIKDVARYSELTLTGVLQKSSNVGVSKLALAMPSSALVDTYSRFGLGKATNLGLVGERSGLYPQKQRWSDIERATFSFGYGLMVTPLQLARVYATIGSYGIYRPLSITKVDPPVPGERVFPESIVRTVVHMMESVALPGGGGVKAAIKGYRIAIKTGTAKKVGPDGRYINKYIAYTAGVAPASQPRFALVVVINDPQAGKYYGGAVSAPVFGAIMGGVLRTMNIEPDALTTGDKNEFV

Row | Compound | MIC (P. aeruginosa CDC-0054) [µg/mL] | MIC (N. gonorrhoeae FA1090) [µg/mL] | MIC (P. aeruginosa ATCC 27853) [µg/mL] | MIC (N. gonorrhoeae WHO Z) [µg/mL] | EC50 (A. baumannii PBP1a) [µM] | EC50 [1] [µM]
1 | O=C(O)c1c(F)ccc2c1OB(O)[C@@H](NC(=O)C(NC(=O)N1CCN(C3CCN(C(=O)c4cccc(O)c4)CC3)C(=O)C1=O)c1cc(F)c(O)c(O)c1Cl)C2 (stereo partly drawn) [Example 293, (3R)-3-(2-(2-chloro-5-fluoro-3,4-dihydroxyphenyl)-2-(4-(1-(3-hydroxybenzoyl)piperidin-4-yl)-2,3-dioxopiperazine-1-carboxamido)acetamido)-7-fluoro-2-hydroxy-3,4-dihydro-2H-benzo[e][1,2]oxaborinine-8-carboxylic acid] | < 1 | 1 to 2 (≈ 1.27 to 2.54 µM) | 2 to 4 (≈ 2.54 to 5.09 µM) | > 64 | 10 to 50 | < 10
2 | Cc1cnccc1C(=O)NCCCN1CCN(C(=O)NC(C(=O)N[C@H]2Cc3ccc(F)c(C(=O)O)c3OB2O)c2cc(F)c(O)c(O)c2Cl)C(=O)C1=O (stereo partly drawn) [Example 297, (3R)-3-(2-(2-chloro-5-fluoro-3,4-dihydroxyphenyl)-2-(4-(3-(3-methylisonicotinamido)propyl)-2,3-dioxopiperazine-1-carboxamido)acetamido)-7-fluoro-2-hydroxy-3,4-dihydro-2H-benzo[e][1,2]oxaborinine-8-carboxylic acid] | 2 to 4 (≈ 2.64 to 5.27 µM) | 1 to 2 (≈ 1.32 to 2.64 µM) | < 1 | > 64 | 10 to 50 | < 10
3 | O=C(NCCCN1CCN(C(=O)NC(C(=O)N[C@H]2Cc3ccc(F)c(C(=O)O)c3OB2O)c2cc(F)c(O)c(O)c2Cl)C(=O)C1=O)c1ccc(O)c(Cl)c1 (stereo partly drawn) [Example 305, (3R)-3-(2-(4-(3-(3-chloro-4-hydroxybenzamido)propyl)-2,3-dioxopiperazine-1-carboxamido)-2-(2-chloro-5-fluoro-3,4-dihydroxyphenyl)acetamido)-7-fluoro-2-hydroxy-3,4-dihydro-2H-benzo[e][1,2]oxaborinine-8-carboxylic acid] | 2 to 4 (≈ 2.52 to 5.04 µM) | 1 to 2 (≈ 1.26 to 2.52 µM) | 2 to 4 (≈ 2.52 to 5.04 µM) | > 64 | < 10 | < 10
4 | O=C(NCCCN1CCN(C(=O)NC(C(=O)N[C@H]2Cc3ccc(F)c(C(=O)O)c3OB2O)c2cc(F)c(O)c(O)c2Cl)C1=O)c1ccc(O)cc1 (stereo partly drawn) [Example 280, (3R)-3-(2-(2-chloro-5-fluoro-3,4-dihydroxyphenyl)-2-(3-(3-(4-hydroxybenzamido)propyl)-2-oxoimidazolidine-1-carboxamido)acetamido)-7-fluoro-2-hydroxy-3,4-dihydro-2H-benzo[e][1,2]oxaborinine-8-carboxylic acid] | 2 to 4 (≈ 2.73 to 5.47 µM) | 4 to 8 (≈ 5.47 to 10.9 µM) | 2 to 4 (≈ 2.73 to 5.47 µM) | 16 to 32 (≈ 21.9 to 43.7 µM) | 10 to 50 | 10 to 50
5 | O=C(NCCCN1CCN(C(=O)NC(C(=O)N[C@H]2Cc3ccc(F)c(C(=O)O)c3OB2O)c2cc(F)c(O)c(O)c2Cl)C1=O)Nc1ccncc1 (stereo partly drawn) [Example 285, (3R)-3-(2-(2-chloro-5-fluoro-3,4-dihydroxyphenyl)-2-(2-oxo-3-(3-(3-(pyridin-4-yl)ureido)propyl)imidazolidine-1-carboxamido)acetamido)-7-fluoro-2-hydroxy-3,4-dihydro-2H-benzo[e][1,2]oxaborinine-8-carboxylic acid] | 8 to 16 (≈ 10.9 to 21.9 µM) | 4 to 8 (≈ 5.47 to 10.9 µM) | 8 to 16 (≈ 10.9 to 21.9 µM) | > 64 | 10 to 50 | 10 to 50
6 | O=C(NCCCN1CCN(C(=O)N[C@@H](C(=O)N[C@H]2Cc3ccc(F)c(C(=O)O)c3OB2O)c2cc(F)c(O)c(O)c2Cl)C(=O)C1=O)c1ccnc(F)c1F [Example 300, (R)-3-((R)-2-(2-chloro-5-fluoro-3,4-dihydroxyphenyl)-2-(4-(3-(2,3-difluoroisonicotinamido)propyl)-2,3-dioxopiperazine-1-carboxamido)acetamido)-7-fluoro-2-hydroxy-3,4-dihydro-2H-benzo[e][1,2]oxaborinine-8-carboxylic acid] | < 1 | 4 to 8 (≈ 5.12 to 10.2 µM) | 2 to 4 (≈ 2.56 to 5.12 µM) | > 64 | 10 to 50 | < 10
7 | O=C(NCCCN1CCN(C(=O)NC(C(=O)N[C@H]2Cc3ccc(F)c(C(=O)O)c3OB2O)c2cc(F)c(O)c(O)c2Cl)C(=O)C1=O)c1ccc(O)c(F)c1F (stereo partly drawn) [Example 306, (3R)-3-(2-(2-chloro-5-fluoro-3,4-dihydroxyphenyl)-2-(4-(3-(2,3-difluoro-4-hydroxybenzamido)propyl)-2,3-dioxopiperazine-1-carboxamido)acetamido)-7-fluoro-2-hydroxy-3,4-dihydro-2H-benzo[e][1,2]oxaborinine-8-carboxylic acid] | 2 to 4 (≈ 2.51 to 5.03 µM) | 1 to 2 (≈ 1.26 to 2.51 µM) | 2 to 4 (≈ 2.51 to 5.03 µM) | > 64 | < 10 | < 10
8 | O=C(NCCCN1CCN(C(=O)N[C@@H](C(=O)N[C@H]2Cc3ccc(F)c(C(=O)O)c3OB2O)c2cc(F)c(O)c(O)c2Cl)C(=O)C1=O)c1ccncc1O [Example 296, (R)-3-((R)-2-(2-chloro-5-fluoro-3,4-dihydroxyphenyl)-2-(4-(3-(3-hydroxyisonicotinamido)propyl)-2,3-dioxopiperazine-1-carboxamido)acetamido)-7-fluoro-2-hydroxy-3,4-dihydro-2H-benzo[e][1,2]oxaborinine-8-carboxylic acid] | < 1 | 1 to 2 (≈ 1.31 to 2.63 µM) | < 1 | > 64 | < 10 | < 10
9 | O=C(NCCCS(=O)(=O)N1CCN(C(=O)NC(C(=O)N[C@H]2Cc3ccc(F)c(C(=O)O)c3OB2O)c2cc(F)c(O)c(O)c2Cl)C1=O)Nc1cccnc1 (stereo partly drawn) [Example 278, (3R)-3-(2-(2-chloro-5-fluoro-3,4-dihydroxyphenyl)-2-(2-oxo-3-((3-(3-(pyridin-3-yl)ureido)propyl)sulfonyl)imidazolidine-1-carboxamido)acetamido)-7-fluoro-2-hydroxy-3,4-dihydro-2H-benzo[e][1,2]oxaborinine-8-carboxylic acid] | 2 to 4 (≈ 2.51 to 5.03 µM) | 4 to 8 (≈ 5.03 to 10.1 µM) | 2 to 4 (≈ 2.51 to 5.03 µM) | 16 to 32 (≈ 20.1 to 40.2 µM) | 10 to 50 | < 10
10 | Cc1cc(C(=O)NCCCN2CCN(C(=O)NC(C(=O)N[C@H]3Cc4ccc(F)c(C(=O)O)c4OB3O)c3cc(F)c(O)c(O)c3Cl)C(=O)C2=O)c(F)cn1 (stereo partly drawn) [Example 301, (3R)-3-(2-(2-chloro-5-fluoro-3,4-dihydroxyphenyl)-2-(4-(3-(5-fluoro-2-methylisonicotinamido)propyl)-2,3-dioxopiperazine-1-carboxamido)acetamido)-7-fluoro-2-hydroxy-3,4-dihydro-2H-benzo[e][1,2]oxaborinine-8-carboxylic acid] | < 1 | 4 to 8 (≈ 5.15 to 10.3 µM) | < 1 | > 64 | 10 to 50 | < 10
11 | O=C(NCCCN1CCN(C(=O)NC(C(=O)N[C@H]2Cc3ccc(F)c(C(=O)O)c3OB2O)c2cc(F)c(O)c(O)c2Cl)C(=O)C1=O)c1ccncc1Cl (stereo partly drawn) [Example 295, (3R)-3-(2-(2-chloro-5-fluoro-3,4-dihydroxyphenyl)-2-(4-(3-(3-chloroisonicotinamido)propyl)-2,3-dioxopiperazine-1-carboxamido)acetamido)-7-fluoro-2-hydroxy-3,4-dihydro-2H-benzo[e][1,2]oxaborinine-8-carboxylic acid] | 2 to 4 (≈ 2.57 to 5.13 µM) | 1 to 2 (≈ 1.28 to 2.57 µM) | 2 to 4 (≈ 2.57 to 5.13 µM) | > 64 | 10 to 50 | < 10
12 | CN(CCCN1CCN(C(=O)NC(C(=O)N[C@H]2Cc3ccc(F)c(C(=O)O)c3OB2O)c2cc(F)c(O)c(O)c2Cl)C(=O)C1=O)C(=O)c1cccc(O)c1 (stereo partly drawn) [Example 310, (3R)-3-(2-(2-chloro-5-fluoro-3,4-dihydroxyphenyl)-2-(4-(3-(3-hydroxy-N-methylbenzamido)propyl)-2,3-dioxopiperazine-1-carboxamido)acetamido)-7-fluoro-2-hydroxy-3,4-dihydro-2H-benzo[e][1,2]oxaborinine-8-carboxylic acid] | < 1 |  | < 1 |  | 50 to 250 | < 10
